Peptide text beside a SMILES is read from it. * marks the point of attachment. Cbz = O=C(OCc1ccccc1)*; CH2F = FC*

For one data set, the system named is ASC in HEI-193 cell line. The data set can be described thus: Demethylation of ASC CpG island, ASC expression by RT-PCR. The class given is cell-based, human. Here is the method:
The cultured cells were treated with (5azadeoxycytindine 0.5, 1 or 2.5 uM) or not treated (0) for 3 days.
Real-time quantitative PCR analyses. RNA isolation from tissue samples was conducted with TRIzol™ reagent according to the manufacturer's instructions (Qiagen, USA) and transcribed into cDNA using superscript VILO™ cDNA synthesis kit (Invitrogen, USA). Taqman™ real-time PCR was carried out using RealPlex MasterCycler™ (eppendorf, USA). […] Taqman probes were purchased from life technologies, USA.

Data set [1] concerns HEI-193 human schwannoma cell line. The settings on record: HEI193 cells transfected with pAAV-CBA-hASC.
Method: For all cell types, growth media were supplemented with 10% fetal bovine serum (FBS; Sigma-Aldrich) and 1% penicillin-streptomycin (Cellgro, Herndon, VA) and cells were maintained at 37° C. in a humidified atmosphere of 5% CO2 and 95% air. […] For transfections in 24-well format, 100,000 cells were seeded 24 hours prior to transfection. 1 μl of liofectamine 2000 (Invitrogen, USA) was used for every 500 ng of transfected plasmid in FBS free medium (Optimem, Invitrogen, USA). The DNA/Lipofectamine mix was incubated at room temperature for 30 minutes before spread over the cells and left for 5-6 hours then replaced by fresh medium. The amount of plasmid/lipofectamine was scaled up according to the plate format used.
Cell viability and toxicity assay. The Cell Titer-Glo™ luminescent cell viability assay (Promega, Madison, WI) was used to determine the number of viable cells in culture on the basis of quantitation of ATP levels, an indicator of metabolically active cells. […] The luminescence was measured with a luminometer (Dynex Technologies, Chantilly, VA). Cell death was measured by the LDH assay using CytoTox 96 Non-Radioactive Cytotoxicity Assay kit (Promega) according to the manufacturer's instructions.
For a further data set, the system named is HEI-193 cells. As to the kind of experiment: In vitro apoptosis staining (TACS 2 TdT-DAB). The class given is cell-based, human. The settings on record: HEI-193 transfected with pAAV-CBA-hASC. Here is the method: To determine whether the ASC/TMS1-mediated growth inhibition was the result of caspases induced apoptosis, in vitro apoptosis staining was performed using TACS 2 TdT-DAB In situ Apoptosis Detection kit (Trevigen).
Apoptosis assay. In-vitro DNA fragmentation of apoptotic cells was assessed TACS® 2 TdT-DAB in Situ Apoptosis Detection Kit. In brief, HEI-193 cells on the coated cover glass and transfected with dsAAV-CBA-ASC or dsAAV-CBA-GFP. Fragmented DNA were visualized with diaminobenzidine (DAB) and viewed by light microscope. In-vivo apoptosis study was assessed using the same kit on fresh frozen nerves that were sliced to 15 um thin sections using cryostat and fixed in 3.7% formaldehyde.

The subject of a further data set is 08031-9 cells. As to the kind of experiment: In vitro apoptotic body staining. The class given is cell-based, mouse. As to conditions: 08031-9 transfected with pAAV-CBA-hASC.

For `Nc1ncn([C@H]2C[C@H](O)[C@@H](CO)O2)c(=O)n1` [5azadeoxycytidine], in the data set on ASC in HEI-193 cell line, the ASC promoter methylation result is reported as “reversible”. Besides, the “ASC expression (RT-PCR, normalized to β-actin)” value with ASC in HEI-193 cell line (0.5, 1 or 2.5 uM for 3 days, ASC-negative HEI-193) is listed as “restores expression”.

On to `COC(=O)CC[C@H](NC(=O)[C@H](CC(=O)OC)NC(=O)OCc1ccccc1)C(=O)N[C@H](C(=O)N[C@@H](CC(=O)OC)C(=O)CF)C(C)C` [ZDEVD-FMK], for which the “LDH release cytotoxicity in presence of caspase inhibitor” value in data set [1] is “inhibited”. Moreover, the “apoptosis in presence of caspase inhibitor” value in the data set on HEI-193 cells is listed as “no apoptosis”; in the data set with HEI-193 cells (listed as ZDEVDFMK) it was “inhibit”; in the data set on HEI-193 cells (listed as caspase-3 inhibitor) it was “abolished”; in the data set with 08031-9 cells, “abolished”.

For `COC(=O)C[C@H](NC(=O)[C@H](C)NC(=O)[C@@H](NC(=O)OCc1ccccc1)C(C)C)C(=O)CF` [ZVAD-FMK] (Cbz-Val-Ala-Asp(OMe)-CH2F), the “LDH release cytotoxicity in presence of caspase inhibitor” value in data set [1] is on record as “inhibited”. The “apoptosis in presence of caspase inhibitor” value is “no apoptosis” with HEI-193 cells, “inhibit” in the data set with HEI-193 cells (listed as ZVADFMK), “abolished” in the data set with HEI-193 cells (listed as pan-caspase inhibitor) and “abolished” in the data set on 08031-9 cells.

Values taken from US12178845B2, “Methods and compositions relating to the treatment of tumors” (THE GENERAL HOSPITAL CORPORATION, priority 2016, dated 2024).
